Source: US20240150360A1 (THE REGENTS OF THE UNIVERSITY OF MICHIGAN, priority 2021, published 2024)
pIC50: −log10 of the molar value. Read-outs that look alike come from different tables or passages of the source.

Key:
CBP = molecular target: T1, CBP (Homo sapiens, UniProt Q92793); experiment: CBP degradation in 22Rv1 cells (5 h); format: cell-based; details: 22Rv1 cells, 5 h; for Dmax: 22Rv1, 5 h, read-out: CBP Degradation (22Rv1, 5 h) DCmax
T1 construct: endogenous in cells; host or cells: 22Rv1 (ATCC CRL-2505) human prostate cancer cells
Text: Biological Assays. […] Cells with 3-8 passages after purchase were used in experiments.

22Rv1 cells = experiment: Cell growth inhibition assay (CellTiter-Glo) in 22Rv1; format: cell-based, human; details: 22Rv1 cells, 96 h incubation, read-out: Cell Growth Inhibition (IC50) 22Rv1
Description: Biological Assays. CBP/p300 degradation activity and cell growth inhibition were evaluated in the human prostate cancer cell line 22Rv1 (ATCC© CRL-2505™) purchased from the American Type Culture Collection (ATCC), Manassas, VA, and maintained and cultured in Dulbecco's Modified Eagle's medium (DMEM) containing 10% fetal bovine serum, 1 unit/ml of penicillin and 1 μg/ml of streptomycin. Cells with 3-8 passages after purchase were used in experiments.
Cell Growth Inhibition Assay Protocol. 22RV1 cells were seeded at a concentration of 4000 cells/well in 100 μl culture medium and 2 μl of test compound (final concentration start from 10 μM and 3 times dilution) into 96 well microplates (Corning 3903). The cell cultures were incubated for 96 h at +37° C. and 5% CO2. The plate and its contents were equilibrated to room temperature for approximately 30 minutes. 100 μl of CellTiter-Glo® 2.0 Reagent equal to the volume of cell culture medium present was added in each well. The contents were mixed for 2 minutes on an orbital shaker. The plate was allowed to incubate at room temperature for 10 minutes. The luminescence was recorded. The data was analyzed by Prism GraphPad 8.

HL60 = experiment: Cell growth inhibition in HL60; format: cell-based; details: read-out: Cell Growth Inhibition (IC50) HL60
[1] = Homo sapiens, HL-60, HL60 cells

T1 sequence (Q92793 whole entry): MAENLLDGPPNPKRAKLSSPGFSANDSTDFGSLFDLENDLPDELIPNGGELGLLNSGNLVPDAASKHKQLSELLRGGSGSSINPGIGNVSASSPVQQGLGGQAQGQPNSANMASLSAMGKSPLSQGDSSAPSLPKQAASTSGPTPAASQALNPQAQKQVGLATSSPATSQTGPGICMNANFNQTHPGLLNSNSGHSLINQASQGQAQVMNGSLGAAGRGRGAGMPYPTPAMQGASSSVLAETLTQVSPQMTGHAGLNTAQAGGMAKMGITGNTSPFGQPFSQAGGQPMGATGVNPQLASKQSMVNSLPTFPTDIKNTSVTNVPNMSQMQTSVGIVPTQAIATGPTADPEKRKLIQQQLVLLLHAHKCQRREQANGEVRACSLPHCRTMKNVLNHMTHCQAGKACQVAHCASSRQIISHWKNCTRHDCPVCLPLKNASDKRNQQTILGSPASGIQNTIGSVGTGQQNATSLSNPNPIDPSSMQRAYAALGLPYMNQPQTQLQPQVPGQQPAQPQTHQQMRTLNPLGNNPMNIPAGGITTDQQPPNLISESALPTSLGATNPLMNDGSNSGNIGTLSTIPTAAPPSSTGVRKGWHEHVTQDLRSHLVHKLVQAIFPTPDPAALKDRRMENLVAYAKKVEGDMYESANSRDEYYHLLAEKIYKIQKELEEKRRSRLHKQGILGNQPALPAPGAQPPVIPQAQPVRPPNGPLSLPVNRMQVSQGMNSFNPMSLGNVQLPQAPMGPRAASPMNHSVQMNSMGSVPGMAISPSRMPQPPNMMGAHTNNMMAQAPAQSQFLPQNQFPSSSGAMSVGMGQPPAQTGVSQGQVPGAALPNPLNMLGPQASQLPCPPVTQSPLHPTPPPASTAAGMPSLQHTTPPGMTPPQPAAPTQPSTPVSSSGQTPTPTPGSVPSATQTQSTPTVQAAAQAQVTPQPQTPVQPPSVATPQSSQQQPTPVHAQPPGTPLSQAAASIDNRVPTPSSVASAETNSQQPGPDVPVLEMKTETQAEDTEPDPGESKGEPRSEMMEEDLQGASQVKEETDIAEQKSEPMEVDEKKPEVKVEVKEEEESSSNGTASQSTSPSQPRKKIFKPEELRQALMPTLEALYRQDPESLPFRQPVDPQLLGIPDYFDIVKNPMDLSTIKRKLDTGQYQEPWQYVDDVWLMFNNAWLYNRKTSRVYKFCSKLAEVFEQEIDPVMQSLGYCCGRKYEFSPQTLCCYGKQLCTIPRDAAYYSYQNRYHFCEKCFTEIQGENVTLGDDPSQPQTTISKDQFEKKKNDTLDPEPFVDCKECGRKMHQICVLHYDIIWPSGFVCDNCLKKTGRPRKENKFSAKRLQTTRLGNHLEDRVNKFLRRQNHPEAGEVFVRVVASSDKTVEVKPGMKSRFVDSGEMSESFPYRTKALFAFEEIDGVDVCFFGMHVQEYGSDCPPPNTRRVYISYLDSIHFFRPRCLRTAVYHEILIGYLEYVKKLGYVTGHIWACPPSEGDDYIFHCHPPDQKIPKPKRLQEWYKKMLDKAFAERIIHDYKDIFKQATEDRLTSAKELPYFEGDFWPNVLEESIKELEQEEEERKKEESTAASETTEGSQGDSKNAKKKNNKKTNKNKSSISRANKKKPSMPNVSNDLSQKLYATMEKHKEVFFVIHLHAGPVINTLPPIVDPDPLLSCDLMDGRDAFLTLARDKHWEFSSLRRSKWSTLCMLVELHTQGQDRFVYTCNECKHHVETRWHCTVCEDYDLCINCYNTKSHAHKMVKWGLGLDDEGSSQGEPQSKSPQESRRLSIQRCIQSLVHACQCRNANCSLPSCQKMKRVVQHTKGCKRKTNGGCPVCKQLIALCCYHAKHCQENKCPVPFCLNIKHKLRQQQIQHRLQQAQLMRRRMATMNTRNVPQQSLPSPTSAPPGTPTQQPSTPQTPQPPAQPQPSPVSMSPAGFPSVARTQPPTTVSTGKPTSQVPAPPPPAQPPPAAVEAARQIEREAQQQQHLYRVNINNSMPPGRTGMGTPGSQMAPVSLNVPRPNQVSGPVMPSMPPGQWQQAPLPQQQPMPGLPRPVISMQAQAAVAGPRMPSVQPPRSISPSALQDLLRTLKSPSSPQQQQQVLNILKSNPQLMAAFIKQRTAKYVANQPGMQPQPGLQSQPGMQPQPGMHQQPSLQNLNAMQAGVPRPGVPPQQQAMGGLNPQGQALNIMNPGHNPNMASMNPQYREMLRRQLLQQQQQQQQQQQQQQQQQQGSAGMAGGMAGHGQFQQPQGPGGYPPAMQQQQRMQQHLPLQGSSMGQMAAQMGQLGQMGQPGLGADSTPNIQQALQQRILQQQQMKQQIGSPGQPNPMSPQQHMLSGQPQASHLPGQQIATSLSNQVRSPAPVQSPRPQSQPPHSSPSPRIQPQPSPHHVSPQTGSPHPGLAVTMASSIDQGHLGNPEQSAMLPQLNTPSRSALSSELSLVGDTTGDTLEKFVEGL

`CC(=O)N1CCc2c(c(N3CCCc4cc(-c5cnn(C)c5)c(C(F)F)cc43)nn2C[C@H]2CC[C@@H](C(=O)N3CCc4cc5c(cc4C3)C(=O)N(C3CCC(=O)NC3=O)C5=O)CC2)C1` (stereo partly drawn) [CP-032, cis-6-(4-((5-acetyl-3-(7-(difluoromethyl)-6-(1-methyl-1H-pyrazol-4-yl)-3,4-dihydroquinolin-1(2H)-yl)-4,5,6,- tetrahydro-1H-pyrazolo[4,3-c]pyridin-1-yl)methyl)cyclohexane-1-carbonyl)-2-(2,6-dioxopiperidin-3-yl)-5,6,7,8-tetrahydro-1H-pyrrolo[3,4-g]isoquinoline-1,3(2H)-dione] gave a Dmax (CBP) greater than 50%, a DC50 (CBP) of less than 100 nM and a pIC50 (22Rv1 cells; Homo sapiens, 22Rv1, 96 h) greater than 5.00. The pIC50 (HL60; [1]) was greater than 6.00.

In the case of `CC(=O)N1CCc2c(c(N3CCCc4ccc(C(F)F)cc43)nn2C2CCN(C(=O)CN3Cc4cc5c(cc4C3)C(=O)N(C3CCC(=O)NC3=O)C5=O)CC2)C1` (stereo not shown) [CP-010, 6-(2-(4-(5-acetyl-3-(7-(difluoromethyl)-3,4-dihydroquinolin-1(2H)-yl)-4,5,6,7-tetrahydro-1H-pyrazolo[4,3-c]pyridin-1-yl)piperidin-1-yl)-2-oxoethyl)-2-(2,6-dioxopiperidin-3-yl)-6,7-dihydropyrrolo[3,4-f]isoindole-1,3(2H,5H)-dione], the Dmax (CBP) was greater than 70%, the DC50 (CBP) was less than 100 nM and the pIC50 (22Rv1 cells; Homo sapiens, 22Rv1, 96 h) was less than 5.00. For the same compound, the pIC50 (HL60; [1]) was greater than 6.00.

`CC(=O)N1CCc2c(c(N3CCCc4cc(-c5cnn(CCCN6Cc7cc8c(cc7C6)C(=O)N(C6CCC(=O)NC6=O)C8=O)c5)c(C(F)F)cc43)nn2C2CCOCC2)C1` (stereo not shown) [CP-073, 6-(3-(4-(1-(5-acetyl-1-(tetrahydro-2H-pyran-4-yl)-4,5,6,7-tetrahydro-1H-pyrazolo[4,3-c]pyridin-3-yl)-7-(difluoromethyl)-1,2,3,4-tetrahydroquinolin-6-yl)-1H-pyrazol-1-yl)propyl)-2-(2,6-dioxopiepridin-3-yl)-6,7-dihydropyrrolo[3,4-f]isoindole-1,3(2H,5H)-dione] showed a Dmax (CBP) greater than 70%, a DC50 (CBP) of less than 10 nM and a pIC50 (22Rv1 cells; Homo sapiens, 22Rv1, 96 h) greater than 5.00. It also gave a pIC50 (HL60; [1]) greater than 7.00.

With `CCC(=O)N1CCc2c(c(N3CCCc4cc(-c5cnn(C)c5)c(C(F)F)cc43)nn2C2CCN(C(=O)CN3Cc4cc5c(cc4C3)C(=O)N(C3CCC(=O)NC3=O)C5=O)CC2)C1` (stereo not shown) [CP-055, 6-(2-(4-(3-(7-(difluoromethyl)-6-(1-methyl-1H-pyrazol-4-yl)-3,4-dihydroquinolin-1(2H)-yl)-5-propionyl-4,5,6,7-tetrahydro-1H-pyrazolo[4,3-c]pyridin-1-yl)piperidin-1-yl)-2-oxoethyl)-2-(2,6-dioxopiperidin-3-yl)-6,7-dihydropyrrolo[3,4-f]isoindole-1,3(2H,5H)-dione] the Dmax (CBP) was greater than 70%, the DC50 (CBP) was less than 10 nM and the pIC50 (22Rv1 cells; Homo sapiens, 22Rv1, 96 h) was greater than 6.00. It also gave a pIC50 (HL60; [1]) greater than 6.00.

With `CC(=O)N1CCc2c(c(N3CCCc4cc(-c5cnn(C)c5)c(C(F)F)cc43)nn2C2CCC(C(=O)N3Cc4cc5c(cc4C3)C(=O)N(C3CCC(=O)NC3=O)C5=O)CC2)C1` (stereo not shown) [CP-034, 6-(4-(5-acetyl-3-(7-(difluoromethyl)-6-(1-methyl-1H-pyrazol-4-yl)-3,4-dihydroquinolin-1(2H)-yl)-4,5,6,7-tetrahydro-1H-pyrazolo[4,3-c]pyridin-1-yl)cyclohexane-1-carbonyl)-2-(2,6-dioxopiperidin-3-yl)-6,7-dihydropyrrolo[3,4-f]isoindole-1,3(2H,5H)-dione] the “CBP Degradation (22Rv1, 5 h) DCmax” value (CBP) was “+++ (>90% = +++)”, the DC50 (CBP) was less than 10 nM and the pIC50 (22Rv1 cells) was greater than 6.00. For the same compound, the pIC50 (HL60; HL60 cells) was greater than 7.00.

Work on `CC(=O)N1CCc2c(c(N3CCCc4cc(-c5cnn(CCCCN6CCc7cc8c(cc7C6)C(=O)N(C6CCC(=O)NC6=O)C8=O)c5)c(C(F)F)cc43)nn2C2CCOCC2)C1` (stereo not shown) [CP-070, 6-(4-(4-(1-(5-acetyl-1-(tetrahydro-2H-pyran-4-yl)-4,5,6,7-tetrahydro-1H-pyrazolo[4,3-c]pyridin-3-yl)-7-(difluoromethyl)-1,2,3,4-tetrahydroquinolin-6-yl)-1H-pyrazol-1-yl)butyl)-2-(2,6-dioxopiperidin-3-yl)-5,6,7,8-tetrahydro-1H-pyrrolo[3,4-g]isoquinoline-1,3(2H)-dione] yielded a Dmax (CBP) greater than 70%, a DC50 (CBP) of less than 10 nM and a pIC50 (22Rv1 cells; Homo sapiens, 22Rv1, 96 h) greater than 6.00. The pIC50 (HL60; [1]) was greater than 7.00.

For `CC(=O)N1CCc2c(c(N3CCCc4cc(-c5cnn(C)c5)c(C(F)F)cc43)nn2C[C@H]2CC[C@H](C(=O)N3CCc4cc5c(cc4C3)C(=O)N(C3CCC(=O)NC3=O)C5=O)CC2)C1` (stereo partly drawn) [CP-030, trans-6-(4-((5-acetyl-3-(7-(difluoromethyl)-6-(1-methyl-1H-pyrazol-4-yl)-3,4-dihydroquinolin-1(2H)-yl)-4,5,6,7-tetrahydro-1H-pyrazolo[4,3-c]pyridin-1-yl)methyl)cyclohexane-1-carbonyl)-2-(2,6-dioxopiperidin-3-yl)-5,6,7,8-tetrahydro-1H-pyrrolo[3,4-g]isoquinoline-1,3(2H)-dione], the Dmax (CBP) was less than 50%, the DC50 (CBP) was greater than 1000 nM and the pIC50 (22Rv1 cells; Homo sapiens, 22Rv1, 96 h) was greater than 5.00. It also gave a pIC50 (HL60; [1]) greater than 6.00.

Work on `CC(=O)N1CCc2c(c(N3CCCc4cc(-c5cnn(C)c5)c(C(F)F)cc43)nn2C[C@H]2CC[C@H](C(=O)N3Cc4cc5c(cc4C3)C(=O)N(C3CCC(=O)NC3=O)C5=O)CC2)C1` (stereo partly drawn) [CP-029, trans-6-(4-((5-acetyl-3-(7-(difluoromethyl)-6-(1-methyl-1H-pyrazol-4-yl)-3,4-dihydroquinolin-1(2H)-yl)-4,5,6,7-tetrahydro-1H-pyrazolo[4,3-c]pyridin-1-yl)methyl)cylcohexane-1-carbonyl)-2-(2,6-dioxopiperidin-3-yl)-6,7-dihydropyrrolo[3,4-f]isoindole-1,3(2H,5H)-dione] yielded a Dmax (CBP) greater than 50%, a DC50 (CBP) of less than 100 nM and a pIC50 (22Rv1 cells; Homo sapiens, 22Rv1, 96 h) greater than 5.00. For the same compound, the pIC50 (HL60; [1]) was greater than 5.00.

With `CC(=O)N1CCc2c(c(N3CCCc4cc(-c5cnn(C)c5)c(C(F)F)cc43)nn2C2CCN(C(=O)CCN3CCc4cc5c(cc4C3)C(=O)N(C3CCC(=O)NC3=O)C5=O)CC2)C1` (stereo not shown) [CP-003, 6-(3-(4-(5-acetyl-3-(7-(difluoromethyl)-6-(1-methyl-1H-pyrazol-4-yl)-3,4-dihydroquinolin-1(2H)-yl)-4,5,6,7-tetrahydro-1H-pyrazolo[4,3-c]pyridin-1-yl)piperidin-1-yl)-3-oxopropyl)-2-(2,6-dioxopiperidin-3-yl)-5,6,7,8-tetrahydro-1H-pyrrolo[3,4-g]isoquinoline-1,3(2H)-dione] the Dmax (CBP) was greater than 50%, the DC50 (CBP) was less than 100 nM and the pIC50 (22Rv1 cells; Homo sapiens, 22Rv1, 96 h) was greater than 5.00. The pIC50 (HL60; [1]) was greater than 6.00.

`CC(=O)N1CCc2c(c(N3CCCc4cc(-c5cnn(C)c5)c(C(F)F)cc43)nn2C[C@H]2CC[C@@H](C(=O)N3Cc4cc5c(cc4C3)C(=O)N(C3CCC(=O)NC3=O)C5=O)CC2)C1` (stereo partly drawn) [CP-031, cis-6-(4-((5-acetyl-3-(7-(difluoromethyl)-6-(1-methyl-1H-pyrazol-4-yl)-3,4-dihydroquinolin-1(2H)-yl)-4,5,6,7-tetrahydro-1H-pyrazolo[4,3-c]pyridin-1-yl)methyl)cyclohexane-1-carbonyl)-2-(2,6-dioxopiperidin-3-yl)-6,7-dihydropyrrolo[3,4-f]isoindole-1,3(2H,5H)-dione] was tested, and the Dmax (CBP) was greater than 50%, the DC50 (CBP) was less than 100 nM and the pIC50 (22Rv1 cells; Homo sapiens, 22Rv1, 96 h) was greater than 5.00. For the same compound, the pIC50 (HL60; [1]) was greater than 6.00.

`CC(=O)N1CCc2c(c(N3CCCc4cc(-c5cnn(C)c5)c(C(F)F)cc43)nn2C2CCN(C(=O)CCCN3CCc4cc5c(cc4C3)C(=O)N(C3CCC(=O)NC3=O)C5=O)CC2)C1` (stereo not shown) [CP-004, 6-(4-(4-(5-acetyl-3-(7-(difluoromethyl)-6-(1-methyl-1H-pyrazol-4-yl)-3,4-dihydroquinolin-1(2H)-yl)-4,5,6,7-tetrahydro-1H-pyrazolo[4,3-c]pyridin-1-yl)piperidin-1-yl)-4-oxobutyl)-2-(2,6-dioxopiperidin-3-yl)-5,6,7,8-tetrahydro-1H-pyrrolo[3,4-g]isoquinoline-1,3(2H)-dione] showed a Dmax (CBP) greater than 70%, a DC50 (CBP) of less than 10 nM and a pIC50 (22Rv1 cells; Homo sapiens, 22Rv1, 96 h) greater than 6.00. It also gave a pIC50 (HL60; [1]) greater than 6.00.

Work on `CC(=O)N1CCc2c(c(N3CCCc4cc(-c5cnn(C)c5)c(C(F)F)cc43)nn2C2CCN(C(=O)CCN3Cc4cc5c(cc4C3)C(=O)N(C3CCC(=O)NC3=O)C5=O)CC2)C1` (stereo not shown) [CP-007, 6-(3-(4-(5-acetyl-3-(7-(difluoromethyl)-6-(1-methyl-1H-pyrazol-4-yl)-3,4-dihydroquinolin-1(2H)-yl)-4,5,6,7-tetrahydro-1H-pyrazolo[4,3-c]pyridin-1-yl)piperidin-1-yl)-3-oxopropyl)-2-(2,6-dioxopiperidin-3-yl)-6,7-dihydropyrrolo[3,4-f]isoindole-1,3(2H,5H)-dione] yielded a Dmax (CBP) greater than 70%, a DC50 (CBP) of less than 100 nM and a pIC50 (22Rv1 cells; Homo sapiens, 22Rv1, 96 h) greater than 6.00. It also gave a pIC50 (HL60; [1]) greater than 6.00.

With `CC(=O)N1CCc2c(c(N3CCCc4ccc(C(F)F)cc43)nn2C2CCN(C(=O)CN3CCc4cc5c(cc4C3)C(=O)N(C3CCC(=O)NC3=O)C5=O)CC2)C1` (stereo not shown) [CP-009, 6-(2-(4-(5-acetyl-3-(7-(difluoromethyl)-3,4-dihydroquinolin-1(2H)-yl)-4,5,6,7-tetrahydro-1H-pyrazolo[4,3-c]pyridin-1-yl)piperidin-1-yl)-2-oxoethyl)-2-(2,6-dioxopiperidin-3-yl)-5,6,7,8-tetrahydro-1H-pyrrolo[3,4-g]isoquinoline-1,3(2H)-dione] the Dmax (CBP) was greater than 90%, the DC50 (CBP) was less than 10 nM and the pIC50 (22Rv1 cells; Homo sapiens, 22Rv1, 96 h) was greater than 6.00. For the same compound, the pIC50 (HL60; [1]) was greater than 7.00.
